Data from US6150385A, “1,3,4-thiadiazoles useful for the treatment of CMV infections” (Pharmacia & Upjohn Company, priority 1999, dated 2000).

Biological target: T1, HCMV polymerase (Human cytomegalovirus, UniProt P08546)
T1 construct: made in house; host or cells: SF-9 insect cells infected with recombinant baculovirus
Experiment: HCMV polymerase assay (scintillation proximity assay)
Type: biochemical
Details: percentage of inhibition at 25 μM concentration in CMV polymerase assay
Protocol: The compounds of the present invention are tested in an polymerase assay to show activity described below, which is indicative of a compound's activity and thus of its use as an anti-viral agent.
The HCMV polymerase assay is performed using a scintillation proximity assay (SPA) as described in several references, such as N. D. Cook, et al., Pharmaceutical Manufacturing International, pages 49-53 (1992); K. Takeuchi, Laboratory Practice, September issue (1992); U.S. Pat. No. 4,568,649 (1986); which are incorporated by reference herein. Reactions are performed in 96-well plates. The assay is conducted in 100 μl volume with 5.4 mM HEPES (pH 7.5), 11.7 mM KCl, 4.5 mM MgCl2, 0.36 mg/ml BSA, and 90 nM ^3 H-dTTP. Assays are run with and without CHAPS, (3-[(3-Cholamidopropyl)-dimethylammonio]-1-propanesulfonate) at a final concentration of 2 mM. HCMV is diluted in enzyme dilution buffer containing 50% glycerol, 250 mM NaCl, 10 mM HEPES (pH 7.5), 100 μg/ml BSA, and 0.01% sodium azide. The HCMV polymerase, which is expressed in recombinant baculovirus-infected SF-9 cells and purified according to literature procedures, is added at 10% (or 10 μl) of the final reaction volume, i.e., 100 μl. Compounds are diluted in 50% DMSO and 10 μl are added to each well. Control wells contain an equivalent concentration of DMSO. Unless noted otherwise, reactions are initiated via the addition of 6 nM biotinylated poly(dA)-oligo(dT) template/primer to reaction mixtures containing the enzyme, substrate, and compounds of interest. Plates are incubated in a 25° C. or 37° C. H2 O bath and terminated via the addition of 40 μl/reaction of 0.5 M EDTA (pH 8) per well. Reactions are terminated within the time-frame during which substrate incorporation is linear and varied depending upon the enzyme and conditions used, i.e., 30 min. for HCMV polymerase. Ten μl of streptavidin-SPA beads (20 mg/ml in PBS/10% glycerol) are added following termination of the reaction. Plates are incubated 10 min. at 37° C., then equilibrated to room temperature, and counted on a Packard Topcount.
In TABLE 1, "MS" refers to mass spectral data, "% inhib" refers to percentage of inhibition at 25 μM concentration in CMV polymerase assay.

T1 sequence (P08546 whole entry): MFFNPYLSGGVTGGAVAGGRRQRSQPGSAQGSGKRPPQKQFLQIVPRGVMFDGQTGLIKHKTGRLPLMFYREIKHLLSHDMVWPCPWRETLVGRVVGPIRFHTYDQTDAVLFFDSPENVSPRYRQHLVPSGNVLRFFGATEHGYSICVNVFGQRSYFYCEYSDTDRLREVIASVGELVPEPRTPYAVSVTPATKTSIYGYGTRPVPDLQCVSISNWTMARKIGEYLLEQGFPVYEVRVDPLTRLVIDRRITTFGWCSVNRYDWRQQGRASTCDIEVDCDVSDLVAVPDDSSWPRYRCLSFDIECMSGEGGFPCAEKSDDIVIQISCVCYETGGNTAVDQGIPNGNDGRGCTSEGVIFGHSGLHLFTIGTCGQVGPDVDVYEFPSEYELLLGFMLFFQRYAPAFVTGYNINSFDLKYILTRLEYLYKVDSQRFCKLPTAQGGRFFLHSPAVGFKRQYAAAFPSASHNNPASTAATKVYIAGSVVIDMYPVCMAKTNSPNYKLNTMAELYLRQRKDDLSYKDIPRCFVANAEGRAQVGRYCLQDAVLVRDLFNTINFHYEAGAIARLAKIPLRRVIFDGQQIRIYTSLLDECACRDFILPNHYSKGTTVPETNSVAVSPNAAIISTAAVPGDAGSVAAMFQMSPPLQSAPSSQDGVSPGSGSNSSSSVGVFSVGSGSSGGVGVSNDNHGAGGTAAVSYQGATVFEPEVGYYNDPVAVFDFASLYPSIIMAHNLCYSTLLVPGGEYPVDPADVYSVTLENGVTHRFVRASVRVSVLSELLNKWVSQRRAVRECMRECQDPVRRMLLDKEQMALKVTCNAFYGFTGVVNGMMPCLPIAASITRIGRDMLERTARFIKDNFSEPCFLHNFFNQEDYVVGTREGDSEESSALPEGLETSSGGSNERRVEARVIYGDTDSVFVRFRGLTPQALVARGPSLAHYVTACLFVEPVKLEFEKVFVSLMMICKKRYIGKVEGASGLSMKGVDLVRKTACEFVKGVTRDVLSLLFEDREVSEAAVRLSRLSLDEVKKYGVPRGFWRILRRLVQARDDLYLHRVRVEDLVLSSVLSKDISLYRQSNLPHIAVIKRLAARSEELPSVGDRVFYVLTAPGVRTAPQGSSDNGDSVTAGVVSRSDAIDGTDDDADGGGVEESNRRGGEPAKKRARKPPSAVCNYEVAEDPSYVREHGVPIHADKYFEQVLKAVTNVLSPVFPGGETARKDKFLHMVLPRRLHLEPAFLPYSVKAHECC

Row | SMILES | inhibition at 25 µM
1 | CCCCCCCC/C=C/CCCCCCCC(=O)Nc1nnc(NCCCNC2CCCCC2)s1 [compound 1, (E)-N-(5-{[3-(cyclohexylamino)propyl]amino}-1,3,4-thiadiazol-2-yl)-9-octadecenamide] | 100%
2 | O=C(Nc1nnc(NCCCNC2CCCCC2)s1)c1ccc2c(c1)C(=O)OC2=O [compound 2, N-(5-{[3-(cyclohexylamino)propyl]amino}-1,3,4-thiadiazol-2-yl)-1,3-dioxo-1,3-dihydro-2-benzofuran-5-carboxamide] | 100%
3 | O=C(Nc1nnc(NCC2CCCCC2)s1)c1ccc2c(c1)C(=O)OC2=O [compound 3, N-{5-[(cyclohexylmethyl)amino]-1,3,4-thiadiazol-2-yl}-1,3-dioxo-1,3-dihydro-2-benzofuran-5-carboxamide] | 100%
4 | CCCCCCCCCCCNc1nnc(NC(=O)c2ccc3c(c2)C(=O)OC3=O)s1 [compound 4, 1,3-dioxo-N-[5-(undecylamino)-1,3,4-thiadiazol-2-yl]-1,3-dihydro-2-benzofuran-5-carboxamide] | 100%
5 | CCCCCCCC/C=C/CCCCCCCC(=O)Nc1nnc(NCCC2CCCN2C)s1 (stereo not shown) [compound 5, (E)-N-(5-{[2-(1-methyl-2-pyrrolidinyl)ethyl]amino}-1,3,4-thiadiazol-2-yl)-9-octadecenamide] | 99.9%
6 | O=C(Nc1nnc(NCCNc2ccccc2)s1)c1ccc2c(c1)C(=O)OC2=O [compound 6, N-{5-[(2-anilinoethyl)amino]-1,3,4-thiadiazol-2-yl}-1,3-dioxo-1,3-dihydro-2-benzofuran-5-carboxamide] | 99.9%
7 | O=C(Nc1nnc(NCc2ccc(F)cc2)s1)c1ccc2c(c1)C(=O)OC2=O [compound 7, N-{5-[(4-fluorobenzyl)amino]-1,3,4-thiadiazol-2-yl}-1,3-dioxo-1,3-dihydro-2-benzofuran-5-carboxamide] | 99.8%
8 | O=C(Nc1nnc(NCc2cccc3ccccc23)s1)c1ccc2c(c1)C(=O)OC2=O [compound 8, N-{5-[(1-naphthylmethyl)amino]-1,3,4-thiadiazol-2-yl}-1,3-dioxo-1,3-dihydro-2-benzofuran-5-carboxamide] | 99.8%
9 | O=C(Nc1nnc(NCCc2cccs2)s1)c1ccc2c(c1)C(=O)OC2=O [compound 9, 1,3-dioxo-N-(5-{[2-(2-thienyl)ethyl]amino}-1,3,4-thiadiazol-2-yl)-1,3-dihydro-2-benzofuran-5-carboxamide] | 99.8%
10 | O=C(Nc1nnc(NCCc2c[nH]c3ccccc23)s1)c1ccc2c(c1)C(=O)OC2=O [compound 10, N-(5-{[2-(1H-indol-3-yl)ethyl]amino}-1,3,4-thiadiazol-2-yl)-1,3-dioxo-1,3-dihydro-2-benzofuran-5-carboxamide] | 99.7%
11 | O=C(Nc1nnc(NCCCCc2ccccc2)s1)c1ccc2c(c1)C(=O)OC2=O [compound 11, 1,3-dioxo-N-{5-[(4-phenylbutyl)amino]-1,3,4-thiadiazol-2-yl}-1,3-dihydro-2-benzofuran-5-carboxamide] | 99.6%
12 | O=C(Nc1nnc(NCc2ccc(Cl)c(Cl)c2)s1)c1ccc2c(c1)C(=O)OC2=O [compound 12, N-{5-[(3,4-dichlorobenzyl)amino]-1,3,4-thiadiazol-2-yl}-1,3-dioxo-1,3-dihydro-2-benzofuran-5-carboxamide] | 99.5%
13 | O=C(Nc1nnc(NCCC(c2ccccc2)c2ccccc2)s1)c1ccc2c(c1)C(=O)OC2=O [compound 13, N-{5-[(3,3-diphenylpropyl)amino]-1,3,4-thiadiazol-2-yl}-1,3-dioxo-1,3-dihydro-2-benzofuran-5-carboxamide] | 99.3%
14 | CCCCCCCC/C=C/CCCCCCCC(=O)Nc1nnc(NCCCN2CCN(C)CC2)s1 [compound 14, (E)-N-(5-{[3-(4-methylpiperazino)propyl]amino}-1,3,4-thiadiazol-2-yl)-9-octadecenamide] | 99%
15 | NS(=O)(=O)c1ccc(CCNc2nnc(NC(=O)c3ccc4c(c3)C(=O)OC4=O)s2)cc1 [compound 15, N-(5-{[4-(aminosulfonyl)phenethyl]amino}-1,3,4-thiadiazol-2-yl)-1,3-dioxo-1,3-dihydro-2-benzofuran-5-carboxamide] | 98.8%
16 | COc1ccc(CNc2nnc(NC(=O)c3ccc4c(c3)C(=O)OC4=O)s2)cc1OC [compound 16, N-{5-[(3,4-dimethoxybenzyl)amino]-1,3,4-thiadiazol-2-yl}-1,3-dioxo-1,3-dihydro-2-benzofuran-5-carboxamide] | 98.7%

Row | SMILES | inhibition at 25 µM
17 | O=C(Nc1nnc(NCC(c2ccccc2)c2ccccc2)s1)c1ccc2c(c1)C(=O)OC2=O [compound 17, N-{5-[(2,2-diphenylethyl)amino]-1,3,4-thiadiazol-2-yl}-1,3-dioxo-1,3-dihydro-2-benzofuran-5-carboxamide] | 98.6%
18 | CCCCCCCC/C=C/CCCCCCCC(=O)Nc1nnc(NCc2ccc(S(N)(=O)=O)cc2)s1 [compound 18, (E)-N-(5-{[4-(aminosulfonyl)benzyl]amino}-1,3,4-thiadiazol-2-yl)-9-octadecenamide] | 98.3%
19 | CCCCCCCC/C=C/CCCCCCCC(=O)Nc1nnc(NCCN2CCCC2)s1 [compound 19, (E)-N-(5-{[2-(1-pyrrolidinyl)ethyl]amino}-1,3,4-thiadiazol-2-yl)-9-octadecenamide] | 97.7%
20 | O=C(Nc1nnc(NCc2ccc3c(c2)OCO3)s1)c1ccc2c(c1)C(=O)OC2=O [compound 20, N-{5-[(1,3-benzodioxol-5-ylmethyl)amino]-1,3,4-thiadiazol-2-yl}-1,3-dioxo-1,3-dihydro-2-benzofuran-5-carboxamide] | 97.7%
21 | O=C(Nc1nnc(NC2CCCc3ccccc32)s1)c1ccc2c(c1)C(=O)OC2=O (stereo not shown) [compound 21, 1,3-dioxo-N-[5-(1,2,3,4-tetrahydro-1-naphthalenylamino)-1,3,4-thiadiazol-2-yl]-1,3-dihydro-2-benzofuran-5-carboxamide] | 97.4%
22 | COc1ccccc1C(=O)Nc1nnc(NC[C@@H]2CCC3CC2C3(C)C)s1 (stereo partly drawn) [compound 22, N-[5-({[(2R)-6,6-dimethylbicyclo[3.1.1]hept-2-yl]methyl}amino)-1,3,4-thiadiazol-2-yl]-2-methoxybenzamide] | 97.2%
23 | CCCCCCCC/C=C/CCCCCCCC(=O)Nc1nnc(NCCN(C)C)s1 [compound 23, (E)-N-(5-{[2-(dimethylamino)ethyl]amino}-1,3,4-thiadiazol-2-yl)-9-octadecenamide] | 97%
24 | O=C(Nc1nnc(NCCc2ccccc2)s1)c1ccc2c(c1)C(=O)OC2=O [compound 24, 1,3-dioxo-N-[5-(phenethylamino)-1,3,4-thiadiazol-2-yl]-1,3-dihydro-2-benzofuran-5-carboxamide] | 95.6%
25 | CC1(C)C2CC[C@@H](CNc3nnc(NC(=O)c4ccc5c(c4)C(=O)OC5=O)s3)C1C2 (stereo partly drawn) [compound 25, N-[5-({[(2R)-6,6-dimethylbicyclo[3.1.1]hept-2-yl]methyl}amino)-1,3,4-thiadiazol-2-yl]-1,3-dioxo-1,3-dihydro-2-benzofuran-5-carboxamide] | 93.9%
26 | CCOc1ccc2ccccc2c1C(=O)Nc1nnc(NCc2ccc(S(N)(=O)=O)cc2)s1 [compound 26, N-(5-{[4-(aminosulfonyl)benzyl]amino}-1,3,4-thiadiazol-2-yl)-2-ethoxy-1-naphthamide] | 93.1%
27 | CCOc1ccc2ccccc2c1C(=O)Nc1nnc(NCCCNC2CCCCC2)s1 [compound 27, N-(5-{[3-(cyclohexylamino)propyl]amino}-1,3,4-thiadiazol-2-yl)-2-ethoxy-1-naphthamide] | 92.9%
28 | CCCCCCCC/C=C/CCCCCCCC(=O)Nc1nnc(NC2CC2)s1 [compound 28, (E)-N-[5-(cyclopropylamino)-1,3,4-thiadiazol-2-yl]-9-octadecenamide] | 92.6%
29 | O=C(Nc1nnc(NC2CCCCCC2)s1)c1ccc2c(c1)C(=O)OC2=O [compound 29, N-[5-(cycloheptylamino)-1,3,4-thiadiazol-2-yl]-1,3-dioxo-1,3-dihydro-2-benzofuran-5-carboxamide] | 92.4%
30 | NS(=O)(=O)c1ccc(CNc2nnc(NC(=O)c3c(Cl)cccc3Cl)s2)cc1 [compound 30, N-(5-{[4-(aminosulfonyl)benzyl]amino}-1,3,4-thiadiazol-2-yl)-2,6-dichlorobenzamide] | 91.8%
31 | CCCCCCCC/C=C/CCCCCCCC(=O)Nc1nnc(NC2CCCCCC2)s1 [compound 31, (E)-N-[5-(cycloheptylamino)-1,3,4-thiadiazol-2-yl]-9-octadecenamide] | 91.8%
